Values after ≈ are worked out from the molar mass of the structure shown. Like-named read-outs stand apart in the source and are kept apart here.
What was measured:
FtuFabI = FtuFabI (Francisella tularensis subsp. tularensis, UniProt Q5NGQ3); assay: biochemical; set-up: species or system F. tularensis subsp. tularensis Schu4; conditions: for Ki: read-out: Ki^2 (Calculated using the Cheng-Prusoff Equation)
FabI = FabI (Francisella tularensis subsp. tularensis, UniProt Q5NGQ3); assay: biochemical; set-up: species or system F. tularensis subsp. tularensis Schu4; conditions: read-out: Ki^1 (Experimental Ki)
[1] = system: F. tularensis, strain Utah 112; assay: microbe, parasite or virus in culture; type: cell-based; conditions: Francisella tularensis, UTAH112
[2] = system: B. anthracis, ΔANR strain; assay: microbe, parasite or virus in culture; type: cell-based; conditions: Bacillus anthracis
[3] = system: S. aureus (ATCC number 29213); assay: microbe, parasite or virus in culture; type: cell-based
MRSA (ATCC number 43300) = assay: microbe, parasite or virus in culture; type: cell-based, methicillin-resistant Staphylococcus aureus; conditions: Staphylococcus aureus
[4] = system: E. coli (BW251113 strain); assay: microbe, parasite or virus in culture; type: cell-based; conditions: Escherichia coli
[5] = system: E. coli TolC-, an efflux defective mutant; assay: microbe, parasite or virus in culture; type: cell-based; conditions: Escherichia coli
S. aureus membrane = assay: Membrane depolarization as a function of time; type: cell-based
S. aureus = assay: Cell viability as a function of time (measured with depolarization); type: cell-based
[6] = read-out: IC50, Inhibition of FabI

Chain of FtuFabI (Q5NGQ3 1-260 limits assumed): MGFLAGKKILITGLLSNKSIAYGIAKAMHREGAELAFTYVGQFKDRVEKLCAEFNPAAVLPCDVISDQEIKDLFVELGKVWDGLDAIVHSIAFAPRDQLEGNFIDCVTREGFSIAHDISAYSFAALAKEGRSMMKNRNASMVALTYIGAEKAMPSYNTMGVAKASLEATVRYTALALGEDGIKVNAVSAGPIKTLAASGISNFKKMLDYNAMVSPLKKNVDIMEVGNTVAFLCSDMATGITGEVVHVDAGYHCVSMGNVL
Chain of FabI (Q5NGQ3 1-260 limits assumed): as above

| SMILES | IC50 (FtuFabI; read-out: IC50) [nM] | IC50 (FtuFabI; [6]) [nM] | Ki (FtuFabI) [nM] | Ki (FabI) [nM] | MBC [1] [µg/mL] | MIC [1] [µg/mL] | MBC [2] [µg/mL] | MIC [2] [µg/mL] | MIC [3] [µg/mL] | MBC ([3]; Staphylococcus aureus) [µg/mL] | MIC ([3]; Staphylococcus aureus) [µg/mL] | MIC (MRSA (ATCC number 43300)) [µg/mL] | MIC [4] [µg/mL] | MBC [5] [µg/mL] | MIC [5] [µg/mL] | Depolarization (done at 2X MIC) (S. aureus membrane) | Cell viability (done at 2X MIC) (S. aureus) | MBC (MRSA (ATCC number 43300)) [µg/mL] |
| --- | --- | --- | --- | --- | --- | --- | --- | --- | --- | --- | --- | --- | --- | --- | --- | --- | --- | --- |
| COc1ccc(Cn2cnc3cc4c(cc32)CCCC4)cc1C [Compound 9, 1-(4-methoxy-3-methylbenzyl)-5,6,7,8-tetrahydro-1H-naphtho[2,3-d]imidazole] | 140 | 140 | 110 | 130 ± 10 | 6.3 (≈ 20.6 µM) | 3.1 (≈ 10.1 µM) | 6.3 (≈ 20.6 µM) | 6.3 (≈ 20.6 µM) | 6.3 (≈ 20.6 µM) | 25 (≈ 81.6 µM) | 6.3 (≈ 20.6 µM) | 12.5 (≈ 40.8 µM) | > 12.5 | 9.4 (≈ 30.7 µM) | 4.7 (≈ 15.3 µM) | Initially depolarizing (in first 60 min) but cells ‘recover’ and regain polarization compared to control with no compound | Clearly bacteriostatic |  |
| c1cc2c(cc1Cn1cnc3cc4c(cc31)CCCC4)OCO2 [Compound 14, 1-(benzo[d][1,3]dioxol-5-ylmethyl)-5,6,7,8-tetrahydro-1H-naphtho[2,3-d]imidazole] | 320 | 320 | 260 | 330 ± 40 | 18.8 (≈ 61.4 µM) | 4.7 (≈ 15.3 µM) |  | > 12.5 | 4.7 (≈ 15.3 µM) | > 25 | 4.7 (≈ 15.3 µM) | 6.3 (≈ 20.6 µM) | > 12.5 | 25 (≈ 81.6 µM) | 9.4 (≈ 30.7 µM) | Clearly no depolarization seen | Clearly bacteriostatic | > 25 |

Reference: US20150246888A1, “ENOYL REDUCTASE INHIBITORS WITH ANTIBACTERIAL ACTIVITY” (priority 2012, published 2015)
